The values that follow come from patent US12053480B2, “Methods and pharmaceutical compositions for treating peripheral demyelinating diseases” (INSERM (INSTITUT NATIONAL DE LA SANTE ET DE LA RECHERCHE …, priority 2015, dated 2024).

The target in this test is T1, VDAC1 (Mus musculus, UniProt Q60932).
T1 construct: strongly expressed in mSC mitochondria; from tissue; host or cells: myelinating Schwann cells (mSC) of the sciatic nerve of living mice (wild type; db/db and +/db in A10)
The test is described as follows: Fluorescent probe imaging of mSC mitochondria in diabetic db/db mice, basal conditions. It counts as in vivo. The procedure: Mice were anesthetized with isoflurane inhalation and placed under a Stemi2000 microscope (Zeiss). Incision area was shaved and cleaned using betadine solution. After incision, the gluteus superficialis and biceps femoris muscles were separated to reveal the cavity traversed by the sciatic nerve. The nerve was lift out using spatula and a thin glass needle filled with viral solution (8 μl) was introduced into the nerve with a micromanipulator. This solution was injected over 30 min with short pressure pulses using a Picospritzer III (Parker Hannifin) coupled to a pulse generator. After injection, the nerve was replaced into the cavity, the muscles were readjusted, and the wound was closed using clips (for further details see Gonzalez et al., 2014^3).
TRO19622 drug (Tocris bioscience, Ref. 2906) was diluted in ethanol to 20 mM and then, the solution was diluted in sterile PBS to 20 μM. TRO19622 treatments were realized by 3 mg/kg intraperitoneal (IP) injections of 20 mM solution or by intra sciatic nerve injections of 2 μl of drug solution 2 μM using a Hamilton syringe or a glass needle in sterile conditions 30 minutes before multiphoton image acquisitions or immunohistochemistry and demyelination studies respectively. […] All drug concentrations were previously evaluated by Bordet et al, 2007^5; Goldin et al, 2008^6; Sharov et al, 2007^7. […]

T1 sequence (Q60932 14-296): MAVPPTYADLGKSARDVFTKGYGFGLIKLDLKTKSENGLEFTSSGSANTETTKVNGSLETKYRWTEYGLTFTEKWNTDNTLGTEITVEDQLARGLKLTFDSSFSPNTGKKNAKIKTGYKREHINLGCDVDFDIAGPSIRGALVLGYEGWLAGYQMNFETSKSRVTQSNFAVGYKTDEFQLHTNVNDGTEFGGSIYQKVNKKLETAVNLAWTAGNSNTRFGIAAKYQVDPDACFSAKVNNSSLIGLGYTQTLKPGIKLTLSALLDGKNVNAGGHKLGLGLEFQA

For `CC(C)CCC[C@@H](C)[C@H]1CC[C@H]2[C@@H]3CCC4=C/C(=N\O)CC[C@]4(C)[C@H]3CC[C@]12C` [TRO19622, (NZ)—N-[(8S,9S,10R,13R,14S,17R)-10,13-dimethyl-17-[(2R)-6-methylheptan-2-yl]-1,2,6,7,8,9,11,12,14,15,16,17-dodecahydrocyclopenta[a]phenanthren-3-ylidene]hydroxylamine], the mitochondrial motility result was “increased” and the “mitochondrial pH” value was “significantly reduced”.
